Laboratory results from patent US7776312B2, “Method of treating Alzheimer's disease comprising administering deferoxamine (DFO) to the upper one-third of the nasal cavity” (HealthPartners Research Foundation, priority 2004, dated 2010).
Read-outs that look alike come from different tables or passages of the source.

Assays:
[1] = tested on: hypoxia-inducible factor-1α (HIF-1α); experiment: Western blot of brain proteins for HIF-1α after intranasal DFO; type: in vivo; conditions: rats, Western blot quantitation
Text: Intranasal DFO reduced infarct volumes by 60% when expressed as either total infarct, cortical infarct, or striatal infarct volume. Brain proteins from olfactory bulb and from striatum were subjected to Western blot analysis for hypoxia-inducible factor-1α (HIF-1α). See FIG. 1 for a bar graph illustrating the results (10) for control animals (C) and pretreated animals (P). The results are shown broken into the cortex (12), striatum (14) and overall total (16) infarct volumes for control/pretreated animals. […] Here, the control animals' (C) total infarct volume is 175.93 mm^3 (18), while the pretreated animals' (P) total infarct volume is 70.57 mm^3 (20). Thus, a reduction of 60% in infarct volume is realized by way of this pretreatment regimen.
Additional brain samples from animals treated with intranasal DFO were generated, total RNA was isolated from olfactory bulb and striatum, and cDNA was generated using primers specific for HIF-1α.

[2] = tested on: middle cerebral artery occlusion (MCAO); experiment: Post-stroke intranasal DFO at start of reperfusion after MCAO, infarct volume; type: in vivo, rats
Protocol: In this regard, let us now turn to FIG. 4. Here, the experimental method is as follows: The method is the same as described above in connection with FIG. 1, except that the subjects are not pretreated. […] Six doses of 10% DFO (6 mg DFO/dose) were administered in this manner; three doses of 10% DFO at 2-hour intervals on the day of surgery and the remaining three doses of 10% DFO at three-hour intervals on the day following surgery (40).

[3] = tested on: middle cerebral artery occlusion (MCAO); experiment: Intranasal DFO pretreatment, infarct volume and brain swelling 24 hours after MCAO; type: in vivo, rats; conditions: 3 doses of 60 μl 10% intranasal DFO 48 hours before MCAO
Protocol: Further, another experiment was conducted to further discover the mechanisms that may be manipulated in order to achieve the desired therapeutic results. Thus, rats were treated with 3 doses of 60 μl 10% intranasal deferoxamine (DFO), or water, at 3 hours intervals. The two groups of rats were either sacrificed or subjected to a 2-hour Middle Cerebral Artery Occlusion (MCAO) 48 hours later. Those rats undergoing the MCAO were sacrificed 24 hours after the MCAO.
In addition to the bioarray and PCR results, total infarct volume, cortical infarct volume and brain swelling were assessed for the rats pretreated with intranasal DFO with stroke and untreated rats with stroke 24 hours after MCAO.

[4] = tested on: middle cerebral artery occlusion (MCAO); experiment: Pre-stroke intranasal DFO, 2-hour middle cerebral artery occlusion (MCAO), infarct volume by TTC staining; type: in vivo, rats; conditions: for total infarct volume: rats
[5] = cited from earlier work
[6] = humans, intravenous; cited from earlier work
[7] = Intranasal delivery of DFO (59Fe-labeled ferrioxamine), tissue concentrations by scintillation counting; type: in vivo, rats; conditions: rat, 6 mg, intranasal ~6 mg, 25 min. after onset of delivery
Text: Following delivery, tissues were removed for analysis.

[8] = one dose of 10% DFO intranasal pre-stroke, 5 days after MCAO
[9] = three doses of 3% DFO intranasal pre-stroke
[10] = three doses of 10% DFO intranasal pre-stroke, 5 days after MCAO

Question: Which results are given for CC(=O)N(O)CCCCCNC(=O)CCC(=O)N(O)CCCCCNC(=O)CCC(=O)N(O)CCCCCN [DFO, deferoxamine]?
Answer: elevation of HIF-1α protein in olfactory bulb [1]: approximately 30 fold; elevation of HIF-1α protein in striatum [1]: ~20 fold; total infarct volume ([2]; rats, six doses of 10% DFO (6 mg/dose) intranasal post-stroke from start of reperfusion): 116 mm^3; reduction of total infarct volume ([2]; six doses of 10% DFO intranasal post-stroke): 55%; decrease in brain swelling [3]: 71%; decrease in cortical infarct volume [3]: 72%; decrease in total infarct volume ([3]; rats): 56%; overall infarct volume reduction [4, 8]: 26%; total infarct volume [4, 8]: 86.72 mm^3; total infarct volume [4, 9]: 101.83 mm^3; total infarct volume ([4]; three doses of 10% DFO (6 mg each) intranasal 48 hours before 2-hour MCAO, 5 days after MCAO): 70.57 mm^3; reduction of total infarct volume [4, 9]: 35%; reduction of cortical infarct volume [4, 10]: 60%; reduction of striatal infarct volume [4, 10]: 60%; reduction of total infarct volume ([4]; three doses of 10% DFO intranasal pre-stroke, 5 days after MCAO, vs distilled water controls): 60%; effect of intravenous bolus injection [5]: causes acute hypotension; plasma half-life [6]: less than 10 minutes; concentration at 25 min ([7]; olfactory epithelium, read-out: DFO concentration, Olfactory Epithelium): 12000 µM; concentration at 25 min ([7]; septal nucleus, read-out: DFO concentration, Septal Nucleus): 2.6 µM; concentration at 25 min ([7]; thalamus, read-out: DFO concentration, Thalamus): 1.1 µM
